Counter-ions that a name gives are not always drawn.
Target: human factor Xa (FXa) (Homo sapiens, UniProt P00742)
Assay: Determination of the factor Xa inhibition (chromogenic substrate)
Format: biochemical
Details: human FXa 0.5 nmol/l, Pefachrome FXa substrate, 25° C., pH 8.3, extinction at 405 nm
Protocol: A.1) Determination of the Factor Xa Inhibition:
The enzymatic inhibition of human factor Xa (FXa) is measured using the conversion of a chromogenic substrate specific for FXa. Factor Xa cleaves p-nitroaniline from the chromogenic substrate. The determinations are carried out in microtitre plates as follows:
The test substances, in various concentrations, are dissolved in DMSO and incubated for 10 minutes at 25° C. with human FXa (0.5 nmol/l dissolved in 50 mmol/l of Tris buffer [C,C,C-tris(hydroxymethyl)aminomethane], 150 mmol/l of NaCl, 0.1% BSA [bovine serum albumin], pH=8.3). Pure DMSO is used as control. The chromogenic substrate ([…] Pefachrome® FXa from Pentapharm) is then added. After an incubation time of 20 minutes at 25° C., the extinction at 405 nm is determined.

Chain of human factor Xa (FXa) (P00742 235-488 limits assumed): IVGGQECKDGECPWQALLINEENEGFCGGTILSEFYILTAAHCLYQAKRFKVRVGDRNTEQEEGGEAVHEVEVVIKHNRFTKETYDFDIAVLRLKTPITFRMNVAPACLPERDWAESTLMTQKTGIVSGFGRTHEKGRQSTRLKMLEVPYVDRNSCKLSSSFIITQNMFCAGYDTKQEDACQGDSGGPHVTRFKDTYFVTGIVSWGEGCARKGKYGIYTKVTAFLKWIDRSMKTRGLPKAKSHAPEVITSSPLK
Chain of human factor Xa (FXa) (P00742 41-179 partner limits assumed): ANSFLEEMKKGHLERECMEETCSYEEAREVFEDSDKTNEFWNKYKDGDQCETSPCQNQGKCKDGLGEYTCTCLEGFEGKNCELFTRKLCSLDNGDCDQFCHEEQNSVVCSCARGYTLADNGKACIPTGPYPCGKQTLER

SMILES	IC50 [nM]
O=C(Nc1ccc(Cl)cn1)c1nccnc1C(=O)Nc1ccc(N2CCCC(O)C2=O)cc1F (centres unmarked) [Example 9, N-(5-Chloropyridin-2-yl)-N′-[2-fluor-4-(3-hydroxy-2-oxopiperidin-1-yl)phenyl]pyrazine-2,3-di-carboxamide]	4.4
O=C(Nc1ccc(Cl)cc1)c1nccnc1C(=O)Nc1ccc(N2CCOCC2=O)cc1 [Example 11, N-(4-Chlorophenyl)-N′-[4-(3-oxomorpholin-4-yl)phenyl]pyrazine-2,3-dicarboxamide]	0.49
O=C(Nc1ccc(N2CCOCC2=O)cc1)c1nccnc1C(=O)Nc1ccc(Cl)cn1 [Example 12, N-(5-Chloropyridin-2-yl)-N′[4-(3-oxomorpholin-4-yl)phenyl]pyrazine-2,3-dicarboxamide]	0.16
O=C(Nc1ccc(F)cc1)c1nccnc1C(=O)Nc1ccc(N2CCOCC2=O)cc1 [Example 17, N-(4-Fluorophenyl)-N′[4-(3-oxomorpholin-4-yl)phenyl]pyrazine-2,3-dicarboxamide]	16
Cc1ccc(NC(=O)c2nccnc2C(=O)Nc2ccc(N3CCOCC3=O)cc2)cc1 [Example 18, N-(4-Methylphenyl)-N′-[4-(3-oxomorpholin-4-yl)phenyl]pyrazine-2,3-dicarboxamide]	7.5
C#Cc1ccc(NC(=O)c2nccnc2C(=O)Nc2ccc(N3CCOCC3=O)cc2)cc1 [Example 20, N-(4-Ethynylphenyl)-N′-[4-(3-oxomorpholin-4-yl)phenyl]pyrazine-2,3-dicarboxamide]	6.3
O=C(Nc1ccc(Cl)cn1)c1nccnc1C(=O)Nc1ccc(-n2cccc(CNC3CC3)c2=O)cc1F [Example 30, N-(5-Chloropyridin-2-yl)-N′-{4-[3-[(cyclopropylamino)methyl]-2-oxopyridin-1(2H)-yl]-2-fluorophenyl}pyrazine-2,3-dicarboxamide trifluoracetate, trifluoroacetate]	0.44
NCCOc1cc(N2CCOCC2=O)ccc1NC(=O)c1nccnc1C(=O)Nc1ccc(Cl)cn1 [Example 32, N-[2-(2-Aminoethoxy)-4-(3-oxomorpholin-4-yl)phenyl]-N′-(5-chloropyridin-2-yl)pyrazine-2,3-dicarboxamide trifluoroacetate]	0.3
